Experimental findings from ChEMBL document CHEMBL1137550, “New potent acetylcholinesterase inhibitors in the tetracyclic triterpene series” (J Med Chem, 2007) are described below.

pIC50: −log10 of the molar value.

One assay concerns the target Cholinesterase (Homo sapiens, UniProt P06276).
Assay [1] has as its target Acetylcholinesterase (Homo sapiens, UniProt P22303).
Description: Inhibition of human recombinant AChE by Ellman's method
Assay [2] deals with Acetylcholinesterase (Torpedo californica, UniProt P04058).
Description: Inhibition of Torpedo californica AChE by Ellman's method
Assay [3] concerns the target T1, Acetylcholinesterase (Bos taurus, UniProt P23795).
T1 sequence (P23795 whole entry): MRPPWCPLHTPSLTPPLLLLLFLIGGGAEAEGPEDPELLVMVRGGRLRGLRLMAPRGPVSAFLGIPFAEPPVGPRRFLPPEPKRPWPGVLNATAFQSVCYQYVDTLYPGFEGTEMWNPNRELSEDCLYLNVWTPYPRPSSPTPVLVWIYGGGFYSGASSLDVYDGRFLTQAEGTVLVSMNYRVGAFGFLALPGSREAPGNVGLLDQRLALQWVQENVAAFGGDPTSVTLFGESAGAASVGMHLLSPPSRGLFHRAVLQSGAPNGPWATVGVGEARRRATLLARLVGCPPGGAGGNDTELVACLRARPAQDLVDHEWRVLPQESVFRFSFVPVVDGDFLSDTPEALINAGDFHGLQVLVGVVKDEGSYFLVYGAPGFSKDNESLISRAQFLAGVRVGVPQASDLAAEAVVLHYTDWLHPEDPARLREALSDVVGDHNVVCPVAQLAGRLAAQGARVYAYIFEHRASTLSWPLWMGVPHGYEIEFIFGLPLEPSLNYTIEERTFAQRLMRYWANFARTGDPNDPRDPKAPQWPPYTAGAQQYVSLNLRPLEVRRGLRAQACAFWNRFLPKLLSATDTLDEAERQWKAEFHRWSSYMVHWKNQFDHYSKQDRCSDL
In words: Inhibition of bovine erythrocytes AChE by Ellman's method. (DTNB colorimetry detects thiols as they appear.)

The target in assay [4] is Acetylcholinesterase (Electrophorus electricus, UniProt O42275).
Sequence of Acetylcholinesterase (Electrophorus electricus, UniProt O42275) (O42275 whole entry): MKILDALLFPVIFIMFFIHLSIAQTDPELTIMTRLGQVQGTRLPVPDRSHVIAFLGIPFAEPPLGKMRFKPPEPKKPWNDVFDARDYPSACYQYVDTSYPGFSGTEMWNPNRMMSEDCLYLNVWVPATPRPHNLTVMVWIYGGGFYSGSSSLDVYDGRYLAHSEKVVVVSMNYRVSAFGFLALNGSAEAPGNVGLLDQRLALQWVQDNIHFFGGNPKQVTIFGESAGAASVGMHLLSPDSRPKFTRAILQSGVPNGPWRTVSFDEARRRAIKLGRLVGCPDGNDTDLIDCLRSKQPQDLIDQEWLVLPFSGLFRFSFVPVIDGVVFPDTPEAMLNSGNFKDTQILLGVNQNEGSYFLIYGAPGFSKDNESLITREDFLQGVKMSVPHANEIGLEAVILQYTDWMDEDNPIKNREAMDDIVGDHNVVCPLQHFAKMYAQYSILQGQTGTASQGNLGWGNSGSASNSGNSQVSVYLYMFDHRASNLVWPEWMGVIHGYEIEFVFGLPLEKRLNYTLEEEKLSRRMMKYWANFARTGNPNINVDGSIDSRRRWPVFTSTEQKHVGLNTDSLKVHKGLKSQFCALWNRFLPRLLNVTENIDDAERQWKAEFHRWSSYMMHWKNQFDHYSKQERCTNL
Description: Inhibition of Electrophorus electricus AChE by Ellman's method

Sequence of Cholinesterase (P06276 whole entry): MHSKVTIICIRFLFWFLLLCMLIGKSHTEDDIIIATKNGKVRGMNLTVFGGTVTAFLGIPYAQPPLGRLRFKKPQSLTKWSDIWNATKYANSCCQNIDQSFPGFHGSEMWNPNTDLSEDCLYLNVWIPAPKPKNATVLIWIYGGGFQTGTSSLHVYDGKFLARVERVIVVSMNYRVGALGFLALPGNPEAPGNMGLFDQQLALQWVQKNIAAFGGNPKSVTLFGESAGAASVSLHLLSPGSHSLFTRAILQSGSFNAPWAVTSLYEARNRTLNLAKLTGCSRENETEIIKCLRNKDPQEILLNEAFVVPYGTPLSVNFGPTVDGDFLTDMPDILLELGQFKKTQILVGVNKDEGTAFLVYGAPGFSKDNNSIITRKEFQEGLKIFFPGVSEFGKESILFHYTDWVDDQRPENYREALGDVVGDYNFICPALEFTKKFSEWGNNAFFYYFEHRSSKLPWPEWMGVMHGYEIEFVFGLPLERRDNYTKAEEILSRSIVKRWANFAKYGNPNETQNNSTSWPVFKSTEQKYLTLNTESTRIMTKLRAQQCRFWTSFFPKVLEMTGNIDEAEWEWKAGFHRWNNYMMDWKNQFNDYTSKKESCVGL
Sequence of Acetylcholinesterase (Torpedo californica, UniProt P04058) (P04058 whole entry): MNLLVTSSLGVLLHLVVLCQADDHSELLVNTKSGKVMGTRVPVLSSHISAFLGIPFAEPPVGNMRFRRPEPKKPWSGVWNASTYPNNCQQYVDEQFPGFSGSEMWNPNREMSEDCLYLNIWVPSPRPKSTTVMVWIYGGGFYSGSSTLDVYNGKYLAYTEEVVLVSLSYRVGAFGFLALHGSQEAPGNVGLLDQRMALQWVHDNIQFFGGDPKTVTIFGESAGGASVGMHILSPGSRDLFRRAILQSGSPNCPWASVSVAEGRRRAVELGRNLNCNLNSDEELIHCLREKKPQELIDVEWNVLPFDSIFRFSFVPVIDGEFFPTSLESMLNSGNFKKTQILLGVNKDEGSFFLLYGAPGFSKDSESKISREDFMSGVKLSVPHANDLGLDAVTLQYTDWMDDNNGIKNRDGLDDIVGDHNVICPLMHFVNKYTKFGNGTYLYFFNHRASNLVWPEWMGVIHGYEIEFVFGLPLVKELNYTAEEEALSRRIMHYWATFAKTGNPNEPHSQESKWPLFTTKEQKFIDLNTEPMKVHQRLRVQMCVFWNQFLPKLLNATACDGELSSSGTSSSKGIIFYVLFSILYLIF
Sequence of Acetylcholinesterase (Homo sapiens, UniProt P22303) (P22303 whole entry): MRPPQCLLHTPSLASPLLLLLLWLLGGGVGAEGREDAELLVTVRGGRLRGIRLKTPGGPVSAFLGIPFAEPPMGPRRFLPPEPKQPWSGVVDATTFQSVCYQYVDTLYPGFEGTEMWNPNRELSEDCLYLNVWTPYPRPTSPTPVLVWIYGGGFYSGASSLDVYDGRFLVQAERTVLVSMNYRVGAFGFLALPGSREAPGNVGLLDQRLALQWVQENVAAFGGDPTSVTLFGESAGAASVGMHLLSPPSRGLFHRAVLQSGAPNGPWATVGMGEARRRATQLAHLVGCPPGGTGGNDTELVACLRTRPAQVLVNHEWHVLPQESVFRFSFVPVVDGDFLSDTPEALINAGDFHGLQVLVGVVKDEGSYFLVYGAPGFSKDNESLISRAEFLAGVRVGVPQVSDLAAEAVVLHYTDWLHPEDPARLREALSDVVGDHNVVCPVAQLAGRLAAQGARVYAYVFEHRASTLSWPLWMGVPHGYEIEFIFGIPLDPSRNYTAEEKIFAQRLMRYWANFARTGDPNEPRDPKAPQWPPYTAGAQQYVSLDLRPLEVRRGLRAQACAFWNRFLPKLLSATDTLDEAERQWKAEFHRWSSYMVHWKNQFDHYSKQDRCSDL

Broadly, the pIC50 is the negative decadic logarithm of the IC50, by convention in mol/L. Read a high pIC50 as a low IC50. As for `CC[C@H](C)C1=N[C@H]2CC=C3C[C@H]4C(=O)C[C@]5(C)[C@@H]([C@H](C)N(C)C)[C@H](O)C[C@@]5(C)[C@@H]4CC[C@H]3[C@]2(C)CN1`, the pIC50 is below 5.00 at Cholinesterase, 5.42 on Acetylcholinesterase [1], 6.35 against Acetylcholinesterase [2] and 5.13 against Acetylcholinesterase [3].

With `CC[C@H](C)C(=O)N[C@H]1CC=C2C[C@H]3C(=O)C[C@]4(C)[C@@H]([C@H](C)N(C)C)[C@H](O)C[C@@]4(C)[C@@H]3CC[C@H]2[C@]1(C)/C=N/Cc1ccccc1`, the pIC50 against Cholinesterase was below 5.00.

The compound `CC[C@H](C)C(=O)N[C@H]1CC[C@H]2C[C@H]3C(=O)C[C@]4(C)[C@@H]([C@H](C)N(C)C)[C@H](O)C[C@@]4(C)[C@@H]3CC[C@H]2[C@]1(C)CN` showed a pIC50 at Acetylcholinesterase [4] of 5.87.

Regarding `CC[C@H](C)C(=O)N[C@H]1CC=C2C[C@H]3C(=O)C[C@]4(C)[C@@H]([C@H](C)N(C)C)[C@H](O)C[C@@]4(C)[C@@H]3CC[C@H]2[C@]1(C)CO`, the negative logarithm of the IC50 (pIC50) was 6.98 against Acetylcholinesterase [4] and below 5.00 on Cholinesterase.

With `CN[C@@H](C)[C@H]1[C@H](O)C[C@@]2(C)[C@@H]3CC[C@@H]4C(=CC[C@@H]5N=C(C(C)C)OC[C@]54C)C[C@H]3C(=O)C[C@]12C`, the pIC50 against Acetylcholinesterase [4] is 6.97; on Acetylcholinesterase [1], 6.29; at Acetylcholinesterase [2], 6.31; against Acetylcholinesterase [3] it was 5.65.

Regarding `CN[C@@H](C)[C@H]1[C@H](O)C[C@@]2(C)[C@@H]3CC[C@@H]4[C@@H](CC[C@H](NC(=O)C(C)C)[C@@]4(C)CO)C[C@H]3C(=O)C[C@]12C`, the results for the pIC50 against Acetylcholinesterase [4] and against Cholinesterase were 6.96 and 5.84, respectively.

Take `CC(C)C1=N[C@H]2CC[C@]34C[C@]35C(=O)C[C@]3(C)[C@@H]([C@H](C)N(C)C)[C@H](O)C[C@@]3(C)[C@@H]5CC[C@H]4[C@]2(C)CN1`: the negative logarithm of the IC50 (pIC50) against Acetylcholinesterase [4] is 7.74; against Cholinesterase, below 5.00; on Acetylcholinesterase [1], 5.51; at Acetylcholinesterase [2] it was 8.70; on Acetylcholinesterase [3], 5.48.

Take `CC[C@H](C)C1=N[C@H]2CC[C@]34C[C@]35C(=O)C[C@]3(C)[C@@H]([C@H](C)N(C)C)[C@H](O)C[C@@]3(C)[C@@H]5CC[C@H]4[C@]2(C)CN1`: the negative logarithm of the IC50 (pIC50) was 7.85 on Acetylcholinesterase [4], 5.36 against Acetylcholinesterase [1], 8.70 against Acetylcholinesterase [2] and 5.19 against Acetylcholinesterase [3].

Compound `CC[C@H](C)C(=O)N[C@H]1CC=C2C[C@H]3C(=O)C[C@]4(C)[C@@H]([C@H](C)N(C)C)[C@H](O)C[C@@]4(C)[C@@H]3CC[C@H]2[C@]1(C)CN` showed a pIC50 against Cholinesterase below 5.00.

Consider `CC(C)[C@H]1N[C@H]2CC=C3C[C@H]4C(=O)C[C@]5(C)[C@@H]([C@H](C)N(C)C)[C@H](O)C[C@@]5(C)[C@@H]4CC[C@H]3[C@]2(C)CO1`, for which the negative logarithm of the IC50 (pIC50) at Acetylcholinesterase [4] was 5.62; against Cholinesterase it was below 5.00.

On to `CCC(CC)C1=N[C@H]2CC=C3C[C@H]4C(=O)C[C@]5(C)[C@@H]([C@H](C)N(C)C)[C@H](O)C[C@@]5(C)[C@@H]4CC[C@H]3[C@]2(C)CO1`, for which the pIC50 against Cholinesterase is 5.81.

Turning to `C[C@@H]([C@H]1[C@H](O)C[C@@]2(C)[C@@H]3CC[C@@H]4C(=CC[C@@H]5N=C(C(C)(C)C)OC[C@]54C)C[C@H]3C(=O)C[C@]12C)N(C)C`, the pIC50 against Cholinesterase is below 5.00; on Acetylcholinesterase [1] it was 6.45; on Acetylcholinesterase [2], 6.43; against Acetylcholinesterase [3], 5.93.

At Acetylcholinesterase [4], `CC(C)C(=O)N[C@H]1CC[C@H]2C[C@H]3C(=O)C[C@]4(C)[C@@H]([C@H](C)N(C)C)[C@H](O)C[C@@]4(C)[C@@H]3CC[C@H]2[C@]1(C)CN` gave a pIC50 of 6.54.

As for `CC(C)C(=O)N[C@H]1CCC23CC24C(=O)C[C@]2(C)[C@@H]([C@H](C)N(C)C)[C@H](O)C[C@@]2(C)[C@@H]4CC[C@H]3[C@]1(C)CO` (some centres not stated), the negative-log IC50 (pIC50) against Acetylcholinesterase [4] and on Cholinesterase was below 5.00 throughout.

Turning to `CC(C)[C@H]1N[C@H]2CC[C@]34C[C@]35C(=O)C[C@]3(C)[C@@H]([C@H](C)N(C)C)C(O)C[C@@]3(C)[C@@H]5CC[C@H]4[C@]2(C)CO1` (some centres not stated), the negative-log IC50 (pIC50) is 6.09 at Acetylcholinesterase [4] and below 5.00 on Cholinesterase.

In the case of `CC1=N[C@H]2CC=C3C[C@H]4C(=O)C[C@]5(C)[C@@H]([C@H](C)N(C)C)[C@H](O)C[C@@]5(C)[C@@H]4CC[C@H]3[C@]2(C)CO1`, the negative-log IC50 (pIC50) against Cholinesterase is below 5.00; at Acetylcholinesterase [1], 5.28; on Acetylcholinesterase [2] it was 5.55; at Acetylcholinesterase [3], 5.21.

On to `CC(C)C1=N[C@H]2CC[C@H]3C=C4C(=O)C[C@]5(C)[C@@H]([C@H](C)N(C)C)[C@H](O)C[C@@]5(C)[C@@H]4CC[C@H]3[C@]2(C)CO1`, for which the pIC50 against Acetylcholinesterase [4] is 6.96; on Cholinesterase, 5.84.

Take `CCC(CC)C(=O)N[C@H]1CC=C2C[C@H]3C(=O)C[C@]4(C)[C@@H]([C@H](C)N(C)C)[C@H](O)C[C@@]4(C)[C@@H]3CC[C@H]2[C@]1(C)CO`: the pIC50 at Cholinesterase was below 5.00.

On to `CC[C@H](C)C1=N[C@H]2CC=C3C[C@H]4C(=O)C[C@]5(C)[C@@H]([C@H](C)N(C)C)[C@H](O)C[C@@]5(C)[C@@H]4CC[C@H]3[C@]2(C)CO1`, for which the pIC50 was below 5.00 against Cholinesterase, 6.58 on Acetylcholinesterase [1], 6.63 on Acetylcholinesterase [2] and 5.87 at Acetylcholinesterase [3].

For `CC(C)C1=N[C@H]2CC=C3CC4C(=O)C[C@]5(C)[C@@H]([C@H](C)N(C)C)[C@H](O)C[C@@]5(C)[C@@H]4CC[C@H]3[C@]2(C)CO1` (some centres not stated), the pIC50 at Acetylcholinesterase [4] was 7.51; against Cholinesterase it was below 6.00; against Acetylcholinesterase [1], 6.52; at Acetylcholinesterase [2] it was 6.41; against Acetylcholinesterase [3] it was 6.12.

`C[C@@H]([C@H]1[C@H](O)C[C@@]2(C)[C@@H]3CC[C@@H]4C(=CC[C@@H]5N=C(c6ccccc6)OC[C@]54C)C[C@H]3C(=O)C[C@]12C)N(C)C` gave a negative-log IC50 (pIC50) at Cholinesterase below 5.00.

Compound `C[C@@H]([C@H]1[C@H](O)C[C@@]2(C)[C@@H]3CC[C@@H]4C(=CC[C@@H]5N=C(Cc6ccccc6)OC[C@]54C)C[C@H]3C(=O)C[C@]12C)N(C)C` had a negative-log IC50 (pIC50) against Cholinesterase of 6.42.

For the compound `CC(C)C1=N[C@H]2CC=C3C[C@H]4C(=O)C[C@]5(C)[C@@H]([C@H](C)N(C)C)[C@H](OC(=O)C(C)(C)C)C[C@@]5(C)[C@@H]4CC[C@H]3[C@]2(C)CO1`, the pIC50 against Acetylcholinesterase [4] is 6.96; against Acetylcholinesterase [1], 6.08; against Acetylcholinesterase [2], 6.14; at Acetylcholinesterase [3], 5.86.

For `CC(=O)O[C@@H]1C[C@@]2(C)[C@@H]3CC[C@@H]4C(=CC[C@@H]5N=C(C(C)C)OC[C@]54C)C[C@H]3C(=O)C[C@]2(C)[C@H]1[C@H](C)N(C)C`, the negative-log IC50 (pIC50) against Acetylcholinesterase [4] is 6.42.

In turn, `CCC(C)C1=N[C@H]2CC=C3C[C@H]4C(=O)C[C@]5(C)[C@@H]([C@H](C)N(C)C)[C@H](O)C[C@@]5(C)[C@@H]4CC[C@H]3[C@]2(C)CO1` (some centres not stated) gave a negative logarithm of the IC50 (pIC50) against Cholinesterase below 5.00.

Compound `CCC1=N[C@H]2CC=C3C[C@H]4C(=O)C[C@]5(C)[C@@H]([C@H](C)N(C)C)[C@H](O)C[C@@]5(C)[C@@H]4CC[C@H]3[C@]2(C)CO1` gave a pIC50 against Cholinesterase below 5.00.

Regarding `CC(C)C(=O)N[C@H]1CC=C2C[C@H]3C(=O)C[C@]4(C)[C@@H]([C@H](C)N(C)C)[C@H](O)C[C@@]4(C)[C@@H]3CC[C@H]2[C@]1(C)CO` (racemic), the pIC50 on Cholinesterase is 5.72.
